Numbers after ± are expanded uncertainties.
Columns and labels:
[1] = Drop volume
[2] = xn = mol fraction of the nth substance listed; conditions: Drop volume, x1 = 0.5412

Structure (SMILES)	surface tension liquid-gas ([1]; 293.15 K) [mN/m]	surface tension liquid-gas ([1]; 303.15 K) [mN/m]	surface tension liquid-gas ([1]; 313.15 K) [mN/m]	surface tension liquid-gas ([2]; 313.15 K) [mN/m]	surface tension liquid-gas ([2]; 323.15 K) [mN/m]	surface tension liquid-gas ([2]; 333.15 K) [mN/m]	surface tension liquid-gas ([2]; 343.15 K) [mN/m]
NCCO [2-aminoethan-1-ol]	48.48 ± 0.47	47.64 ± 0.46	46.88 ± 0.46				
NCCO [2-aminoethan-1-ol] + O				51.5 ± 1.8	50.4 ± 1.8	49.3 ± 1.8	48.1 ± 1.8
